The source of these data is patent US4511724A, “5-(Pyrrol-2-oyl)-1,2-dihydro-3H-pyrrolo [1,2-a]pyrrole derivatives as anti-inflammatory and analgesic agents” (Merck & Co., Inc., priority 1982, dated 1985).

Data set [1] relates to phenylbenzquinone (PBQ) writhing. Description: Inhibition of phenylbenzquinone (PBQ) writhing in mice. It counts as in vivo, mice (C.B.L., CD1). As to conditions: Mus musculus, oral, PBQ 2.0 mg/kg i.p. The procedure: b. Inhibition of phenylbenzquinone (PBQ) writhing in mice:
Groups of 10 male mice (C.B.L., CD1, 18-22 grams) were food deprived overnight prior to the experiments. Test substances, suspended or dissolved in 1% methylcellulose, were administered orally (0.1 ml/10 grams body weight) at various times prior to administration of PBQ (2.0 mg/kg i.p.). The mice were placed in individual boxes and observed for 10 minutes (5 to 15 minutes after PBQ). The number of "writhes" (abdominal contraction, lordosis and hindlimb extension) for each animal was recorded and the group means and standard errors were calculated. The means obtained from drug treated groups were compared with the vehicle control mean values and percent inhibition of writhing was calculated as follows: [formula]
(In writhing tests, fewer writhes than in controls are read as antinociception.)

Data set [2] can be described thus: in vivo. Also noted: species or system Rats (Sprague-Dawley). As to conditions: rat, po. The procedure: The GHLF test is conducted according to the following procedure:
Rats (Sprague-Dawley, Males, 120-180 gm) were fasted overnight and dosed orally with drug suspended in 0.5% methylcellulose. The drug concentration was adjusted so that each animal received 1.0 ml/100 gm body weight. Four hours later the animals were killed by asphixiation in carbon dioxide, the stomachs removed, cut open and everted. The mucosal lining was washed and examined under 3X magnification. The lesions are indentified as perforations of the gastric mucosa many of which perforate right through the wall of the stomach.
The results are expressed in two ways, the average number of lesions per stomach, and the number of animals in the group showing at least one lesion.

The subject of data set [3] is adjuvant arthritis. In words: Rat adjuvant arthritis test (adjuvant). It counts as in vivo. Particulars: for ED50: rat adjuvant arthritis. From the text: c. Rat adjuvant arthritis test (adjuvant)
The test was done in accordance with procedures well-known in the art (see: C. A. Winter, Arthr. Rheum 9, 394-404 (1966).

One may read the ED50 as the midpoint of the dose-response relation. For the compound `CCOC(=O)C1CCn2c1cc(C)c2C(=O)c1cccn1C` (centres unmarked) [Prior Art Compound, reference compound], the ED50 in data set [1] turned out to be 1 mg/kg; in data set [3], 30 mg/kg. In data set [2], this compound displayed a TD50 at 4 h of 10 mg/kg. Moreover, in data set [3] (at 30 mg/kg), the “protection from bone and cartilage destruction” value is recorded as “No protection”.
Consider `CCOC(=O)C1CCn2c1cc(C)c2C(=O)c1ccc(SC)n1C` (centres unmarked) [RZ = CH3 S, R^4 = C2 H5, ethyl 5-(1-methyl-5-methylthio-2-pyrroyl)-1,2-dihydro-6-methyl-3H-pyrrolo-[1,2-a]pyrrole-1-carboxylate], for which the ED50 in data set [1] was 0.17 mg/kg; in data set [3], 7.5 mg/kg. Besides, the TD50 at 4 h in data set [2] turned out to be 90 mg/kg. The “protection from bone and cartilage destruction” value in data set [3] (at 10 mg/kg) is “Protection”.
In turn, `CSc1ccc(C(=O)c2c(C)cc3n2CCC3C(=O)O)n1C` (centres unmarked) [RZ = CH3 S, R^4 = H, 5-(1-methyl-5-methylthio-2-pyrroyl)-1,2-dihydro-6-methyl-3H-pyrrolo-[1,2-a]pyrrole-1-carboxylic acid] came in with a TD50 at 4 h in data set [2] of 15 mg/kg.
`Cc1cc2n(c1C(=O)c1ccc(Cl)n1C)CCC2C(=O)O` (centres unmarked) [RZ = Cl, R^4 = H, 5-(1-methyl-5-chloro-2-pyrroyl)-1,2-dihydro-6-methyl-3H-pyrrolo[1,2-a]pyrrole-1-carboxylic acid] came in with an ED50 in data set [1] of 2.1 mg/kg. This compound also returned a TD50 at 4 h in data set [2] of 15 mg/kg.
